Source: paper PMC5626944 (Frontiers in Pharmacology, 2017)
Like-named read-outs stand apart in the source and are kept apart here.

Experiments:
[1] = test system: Serotonin, 5HT4; assay: NovaScreen competition binding; conditions: 1 µM
[2] = test system: WT and α6L9′S mice; assay: Locomotor assay in a novel environment; format: in vivo, mouse; conditions: 0.5 μmol/kg ip (nicotine 0.08 mg/kg, TC299423 0.09 mg/kg)
Protocol: Mice were habituated to the experimental room for 2 h prior to the experiment. Horizontal locomotor activity was recorded using an infrared photobeam activity cage system (San Diego Instruments; San Diego, CA, United States). After habituating to the experimental room, mice were placed singly in a novel cage. Ambulations were recorded when two contiguous photobeams were broken in succession, preventing activity from being recorded by most sedentary animals. Ambulation events were measured for 45 min with four 15 s intervals per min. Mice were given a total of two intraperitoneal (ip) injections. First, mice were pre-injected with saline or 1 mg/kg mecamylamine before being placed in the activity cages.

[3] = test system: Serotonin, 5HT7 (h); assay: NovaScreen competition binding; set-up: species or system human; conditions: 1 µM
[4] = test system: GABA, Chloride, TBOB Site; assay: NovaScreen competition binding; conditions: 1 µM
[5] = test system: Glutamate, AMPA Site (Ionotropic); assay: NovaScreen competition binding; conditions: 1 µM
[6] = test system: Serotonin, 5HT1A (h); assay: NovaScreen competition binding; set-up: species or system human; conditions: 1 µM
[7] = test system: T1, Angiotensin II, AT1 (h); assay: NovaScreen competition binding; set-up: species or system human; conditions: 1 µM
T1 construct: PerkinElmer – Caliper Life Sciences (NovaScreen service)

[8] = test system: Muscarinic, M2 (h); assay: NovaScreen competition binding; set-up: species or system human; conditions: 1 µM
[9] = test system: T2, Bradykinin, BK2; assay: NovaScreen competition binding; conditions: 1 µM
T2 construct: PerkinElmer – Caliper Life Sciences (NovaScreen service)

[10] = test system: Opioid, Delta 2 (h); assay: NovaScreen competition binding; set-up: species or system human; conditions: 1 µM
[11] = molecular target: α6β2* nAChRs (Mus musculus, UniProt Q9ERK7+Q9R0W9); assay: biochemical; format: biochemical; conditions: for EC50: read-out: Neurotransmitter release EC50 (converted); for Emax: relative to nicotine
Protocol: Regions of interest were dissected from fresh mouse brains and homogenized in ice-cold isotonic sucrose (0.32 M), buffered with HEPES (5 mM, pH 7.5). The suspension was centrifuged at 12,000 × g for 20 min. The pellet was re-suspended in the appropriate uptake buffer ([Grady et al., 2001]; [Salminen et al., 2004]; [Marks et al., 2006]) and used immediately.
Superfusion was carried out at 22°C using a buffer containing: NaCl, 128 mM; KCl, 2.4 mM; CaCl2, 3.2 mM; MgSO4, 1.2 mM; KH2PO4, 1.2 mM; HEPES, 25 mM; glucose, 10 mM; ascorbic acid, 1 mM; pargyline, 0.01 mM; 0.1% BSA; nomifensine, 1 μM (to prevent the re-uptake of dopamine); atropine, 1 μM (to prevent muscarinic receptor activation); pH 7.5. Superfusion proceeded at 0.7 mL/min for 10 min before stimulation with agonist for 20 s. Selected aliquots were perfused with α-CtxMII (50 nM) for 3 min immediately before stimulation. This concentration of α-CtxMII was sufficient to inhibit α6β2^∗-nAChRs in the mouse striatum ([Salminen et al., 2004], [2007]). Fractions (∼0.1 mL) were collected into 96-well plates at 10 s intervals for 4 min (starting ∼1 min before stimulation). After adding 0.15 mL of Optiphase SuperMix scintillation cocktail, radioactivity was measured using a 1450 MicroBeta TriLux counter (Perkin Elmer Life Sciences).

[12] = molecular target: T3, α3β4* nAChRs (Mus musculus, UniProt Q8R493+Q8R4G9); assay: [125I]epibatidine binding, IPN membranes from β2KO mice
T3 construct: from tissue
Protocol: The methods used for preparing brain membranes in hypotonic buffer have been described previously ([Marks et al., 1998], [2007]). Brain membrane preparations were stored as pellets under buffer at -70°C or used immediately. We followed previously published methods for [^125I]epibatidine binding and analysis ([Grady et al., 2010]).

[13] = test system: Dopamine, D1 (h); assay: NovaScreen competition binding; set-up: species or system human; conditions: 1 µM
[14] = test system: male Wistar rats; assay: Rat responding for food rewards; format: in vivo; conditions: 0.01, 0.025, 0.05, 0.08 mg/kg ip, 20 min before session
From the text: Operant chambers (Med Associates, East Fairfield, VT, United States) were used for food delivery and the intravenous self-administration (IVSA) of nicotine.
For IV catheter implantation, the rats were anesthetized using 1–3% isoflurane inhalation in oxygen and surgically prepared with catheters in the left jugular vein ([Kenny et al., 2008]). The catheter was passed subcutaneously to a polyethylene assembly mounted on the animals’ back. Prior to training, rats were food-restricted so that their body weight was approximately ∼85% that of free-feeding rats. They were then trained to press an active lever for 45 mg food pellets on a fixed ratio 5 time-out 20 s (FR5TO20) schedule of reinforcement. […] Pressing this lever was recorded but was not associated with scheduled consequence. Rats were permitted to respond for food rewards until a reliable response was achieved, defined as >90 pellets earned per 1 h session for three consecutive sessions. Rats were then permitted to respond for food (n = 8) or for nicotine infusions (n = 9) during 1 h daily sessions under the FR5TO20 schedule. […]
Twenty min after injection, rats were placed in the operant boxes and responding for food rewards or nicotine infusions was recorded. […]

[15] = test system: T4, Adenosine Transporter (h); assay: NovaScreen competition binding; set-up: species or system human; conditions: 1 µM
T4 construct: PerkinElmer – Caliper Life Sciences (NovaScreen service)

α6β2* nAChRs, sequence (Q9R0W9 31-494): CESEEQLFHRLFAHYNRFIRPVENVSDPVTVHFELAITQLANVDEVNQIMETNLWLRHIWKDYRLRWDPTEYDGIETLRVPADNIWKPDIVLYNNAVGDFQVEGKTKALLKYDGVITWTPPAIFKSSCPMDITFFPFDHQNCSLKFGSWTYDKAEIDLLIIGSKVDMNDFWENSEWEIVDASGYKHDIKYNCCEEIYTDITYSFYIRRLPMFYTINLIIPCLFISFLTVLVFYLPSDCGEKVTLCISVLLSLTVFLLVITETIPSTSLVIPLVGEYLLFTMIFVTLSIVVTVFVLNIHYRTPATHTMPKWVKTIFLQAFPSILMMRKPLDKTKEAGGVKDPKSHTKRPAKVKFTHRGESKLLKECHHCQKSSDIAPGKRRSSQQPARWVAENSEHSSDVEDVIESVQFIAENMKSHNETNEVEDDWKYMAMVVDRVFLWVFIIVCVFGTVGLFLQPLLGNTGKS
α6β2* nAChRs, sequence (Q9ERK7 26-501): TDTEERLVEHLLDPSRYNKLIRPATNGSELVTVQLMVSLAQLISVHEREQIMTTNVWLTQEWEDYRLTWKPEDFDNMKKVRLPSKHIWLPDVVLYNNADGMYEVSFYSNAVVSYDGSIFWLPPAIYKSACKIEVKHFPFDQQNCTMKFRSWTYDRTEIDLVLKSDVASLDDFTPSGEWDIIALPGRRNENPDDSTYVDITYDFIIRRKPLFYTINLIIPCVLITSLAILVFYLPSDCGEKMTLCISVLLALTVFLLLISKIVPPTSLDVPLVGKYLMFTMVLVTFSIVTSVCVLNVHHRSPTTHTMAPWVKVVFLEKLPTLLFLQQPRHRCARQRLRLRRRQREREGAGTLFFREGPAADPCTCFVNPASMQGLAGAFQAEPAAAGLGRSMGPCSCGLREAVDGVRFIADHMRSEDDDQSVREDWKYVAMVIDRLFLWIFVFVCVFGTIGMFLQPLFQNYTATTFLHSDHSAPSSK
α6β2* nAChRs, sequence (Q8BMN3 31-464 partner): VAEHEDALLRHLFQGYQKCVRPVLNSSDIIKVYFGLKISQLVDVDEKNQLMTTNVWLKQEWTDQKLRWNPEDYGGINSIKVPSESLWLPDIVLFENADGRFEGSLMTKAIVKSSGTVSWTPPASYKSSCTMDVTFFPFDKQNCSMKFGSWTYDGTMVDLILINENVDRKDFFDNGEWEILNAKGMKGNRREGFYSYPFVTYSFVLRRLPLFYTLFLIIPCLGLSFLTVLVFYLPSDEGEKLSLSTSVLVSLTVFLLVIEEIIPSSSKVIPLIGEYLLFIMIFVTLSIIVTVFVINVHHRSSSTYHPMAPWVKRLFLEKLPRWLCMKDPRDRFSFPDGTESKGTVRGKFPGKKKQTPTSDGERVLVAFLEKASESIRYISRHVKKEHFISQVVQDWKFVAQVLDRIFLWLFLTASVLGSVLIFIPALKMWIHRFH
T3 sequence (Q8R4G9 26-499): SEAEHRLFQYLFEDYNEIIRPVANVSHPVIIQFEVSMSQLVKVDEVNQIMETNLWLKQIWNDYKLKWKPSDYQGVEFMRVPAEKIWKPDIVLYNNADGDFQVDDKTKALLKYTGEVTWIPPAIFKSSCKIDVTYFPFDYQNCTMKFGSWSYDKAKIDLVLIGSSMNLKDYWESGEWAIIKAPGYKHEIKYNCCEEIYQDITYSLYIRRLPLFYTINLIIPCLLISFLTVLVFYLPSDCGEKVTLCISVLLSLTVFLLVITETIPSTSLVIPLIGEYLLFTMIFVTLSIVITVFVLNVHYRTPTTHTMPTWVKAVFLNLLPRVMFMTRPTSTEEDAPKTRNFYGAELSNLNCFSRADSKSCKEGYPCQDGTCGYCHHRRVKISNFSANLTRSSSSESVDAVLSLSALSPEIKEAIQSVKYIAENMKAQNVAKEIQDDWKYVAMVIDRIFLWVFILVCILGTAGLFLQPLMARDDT
T3 sequence (Q8R493 21-495): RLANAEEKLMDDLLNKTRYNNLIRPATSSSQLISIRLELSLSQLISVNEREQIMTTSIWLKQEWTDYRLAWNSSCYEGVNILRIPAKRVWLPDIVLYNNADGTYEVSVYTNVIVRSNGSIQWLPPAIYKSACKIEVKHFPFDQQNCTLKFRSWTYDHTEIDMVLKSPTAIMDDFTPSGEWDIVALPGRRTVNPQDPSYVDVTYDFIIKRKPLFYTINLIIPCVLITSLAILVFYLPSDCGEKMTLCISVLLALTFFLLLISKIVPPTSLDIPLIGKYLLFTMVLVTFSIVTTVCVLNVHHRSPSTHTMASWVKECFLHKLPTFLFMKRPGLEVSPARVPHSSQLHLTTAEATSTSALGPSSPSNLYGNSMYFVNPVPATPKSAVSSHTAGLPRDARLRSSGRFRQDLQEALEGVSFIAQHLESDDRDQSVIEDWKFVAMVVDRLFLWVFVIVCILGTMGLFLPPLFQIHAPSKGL

With `C1=C(/c2cncnc2)CCCNCC/1` [TC299423, (E)-5-(pyrimidin-5-yl)-1,2,3,4,7,8-hexahydroazocine] as the compound, how does the Hit [1] read?
The Hit was “FALSE”.

What about the Inhibition ([1]; [3H]GR 113808) of the same compound?
Its Inhibition is -16.64%.

And the “Ambulatory activity in a novel environment” value ([2]; WT mice)?
Its value is “Neither TC299423 nor nicotine affected WT ambulation”.

And the “Ambulatory activity in a novel environment” value ([2]; α6L9′S mice)?
Its value is “dramatically increased the ambulatory activity”.

What about the Hit [3] of the same compound?
Its Hit is “FALSE”.

What about the Inhibition ([3]; [3H]LSD) of the same compound?
Its Inhibition is -2.10%.

And the Hit [4]?
The Hit was “FALSE”.

And the Inhibition ([4]; [3H]TBOB)?
The Inhibition was 6.83%.

What about the Hit [5] of the same compound?
The Hit was “FALSE”.

And the Inhibition ([5]; [3H]AMPA)?
Its Inhibition is -1.26%.

What about the Hit [6] of the same compound?
The Hit was “FALSE”.

What about the Inhibition ([6]; [3H]-8-OH-DPAT) of the same compound?
Its Inhibition is 17.60%.

What about the Hit [7] of the same compound?
The Hit was “FALSE”.

What about the Inhibition ([7]; [125I]-(Sar1-Ile8) Angiotensin) of the same compound?
Its Inhibition is 24.85%.

And the Hit [8]?
Its Hit is “FALSE”.

And the Inhibition ([8]; [3H]Scopolamine, N-Methyl)?
The Inhibition was -3.18%.

What about the Hit [9] of the same compound?
The Hit was “FALSE”.

And the Inhibition ([9]; [3H]Bradykinin)?
Its Inhibition is 32.29%.

What about the Hit [10] of the same compound?
The Hit was “FALSE”.

What about the Inhibition ([10]; [3H]-Naltrindole) of the same compound?
Its Inhibition is -2.12%.

And the EC50 ([11]; WT striatal synaptosomes)?
Its EC50 is 30 ± 0.006 nM.

And the “Maximal response, α-CtxMII-sensitive [3H]-dopamine release” value ([11]; calculated from Michaelis–Menten curve fit)?
Its value is 0.93 ± 0.08 units.

And the Emax ([11]; read-out: Neurotransmitter release % Efficacy, WT striatal synaptosomes)?
The Emax was 50 ± 20%.

And the Emax ([11]; read-out: Neurotransmitter release % Efficacy, α5KO striatal synaptosomes)?
Its Emax is 54 ± 14%.

And the EC50 ([11]; α5KO striatal synaptosomes)?
The EC50 was 50 nM.

And the Ki [12]?
The Ki was 18 ± 0.7 nM.

And the Hit [13]?
The Hit was “FALSE”.

And the Inhibition ([13]; [3H]-SCH23390)?
Its Inhibition is -2.94%.

What about the “Responding for food pellets vs vehicle” value [14] of the same compound?
Its value is “no statistically significant changes”.

What about the Hit [15] of the same compound?
Its Hit is “FALSE”.

And the Inhibition ([15]; [3H]-NBTI)?
The Inhibition was 12.86%.
